Reference: US9637490B2, “Antifungal 5,6-dihydro-4-[(difluoroethyl)phenyl]-4H-pyrrolo[1,2-α][1,4]benzodiazepine and 4-(difluoroethyl)phenyl-6H-pyrrolo[1,2-α][1,4]benzodiazepine derivatives” (Janssen Pharmaceutica NV, priority 2010, dated 2017)

What was measured:
in vivo = experiment: in vivo; design: species or system mice; settings: mouse, po
Protocol: (§1) Three animals (mean weight 20±7 g for mice and 275±20 for Guinea pigs) were used per dose route, time point and formulation.
(§2) For the oral (PO) solution formulation, compound was dissolved in a 20% hydroxypropyl-β-cyclodextrin (HP-β-CD) solution at a final concentration of 1 mg/ml. HCl was added to facilitate dissolution. After dissolution, the pH was brought up to 3.7 with NaOH. Mannitol was added to make the solution isotonic. For the PO suspension formulation, compound was suspended in 0.5% methocel at a final concentration of 1 mg/ml. The formulations were stored at room temperature, protected from light and analysed quantitatively with LC-MS/MS on the day of preparation. Stability of the formulations was checked on the day of dosing.
(§3) The animals were dosed orally by gastric intubation at 10 ml/kg to obtain a final dose 10 mg/kg. Three dosed animals were sacrificed for blood sampling at 15 and 30 min, 1, 2, 3, 4, 6, 8 and 24 h after PO dose administration as a solution and at 30 min, 1, 2, 4, 6, 8 and 24 h after PO dose administration as a suspension.
(§4) Blood was collected by multiple sampling from a tail vein into Multivette® 600 K3E tubes (Sarstedt). Samples were placed immediately at approximately 4° C. and plasma was obtained following centrifugation at 4° C. for 10 minutes at approximately 1900×g. All samples were shielded from daylight and stored at ≦−18° C. prior to analysis.
(§5) Plasma samples were analysed for dosed compound using a qualified research LC-MS/MS method. The key analytical performance (linearity, upper and lower limit of quantification, accuracy and precision) of the method was reported together with the plasma concentrations.
(§6) A limited pharmacokinetic analysis was performed using WinNonlin™ Professional (Version 5.2.1). A non-compartmental analysis using the lin/log trapezoidal rule with lin/log interpolation was used for all data.

[1] = In vivo pharmacokinetic determinations (bioavailability) in guinea pigs; settings: guinea pig
Protocol: as §1, §2, §3, §4, §5, §6

[2] = test system: Microsporum canis (strain B68128); experiment: Test D.4.1: activity against M. canis in guinea-pigs after oral treatment for 7 consecutive days; type: in vivo; design: key to semi-quantitative lesion score (mean): lesion score 0–3.5 by severity and size of lesion; settings: oral 10 mg/kg once daily for 7 days
Protocol: The animals used in the tests described below were female Guinea pigs (Duncan-Hartley, Charles River, 200 g). These animals were kept in groups of 2 or 3 in cages of 56×33×20 cm^3. Food pellets (Carfil Quality) and water were available ad libitum in addition to a small daily amount of hay. Standard husbandry conditions were adopted: room temperature: 22° C., humidity level: 60% and a day-night cycle of 12 h.
For the preparation of inoculums, Microsporum canis (strain B68128) was grown on Sabouraud Dextrose Agar (SDA) plates for at least one week (7-10 days) before infection (27° C.). On the day of infection, spores were harvested by adding 4-5 ml sterile water on the plate and suspending the infectious material with a bend Pasteur pipette. From the recollected fluid, 10 μl was added to a KOVA counting chamber for determination of the number of spores in 1 square (average of several squares). If needed, additional dilutions (10× or 100×) were prepared. The average number of spores in one square×dilution×90.000=cfu/ml. An inoculum of 1×10^7 cfu/ml was prepared in a honey-water mixture (50%-50%).
In the tests described below, semi-quantitative lesion scores were given based on different clinical parameters. Scores between 0 and 3.5 were assigned based on the severity and size of the lesion. The criteria are listed in detail in Table 6.
The dorsum of the guinea pigs was shaved and further depilated for 3 minutes with Veet® creme before scarification with a steel brush. An inoculum of 10^6 cfu in 150 μl (75 mQ+75 μl honey) was applied to the wound using a micropipette with disposable tips. The animal was kept immobilized until the inoculum had completely dried. […]
vehicle: methocel 0.5%, Tween 80® (polysorbate 80), demineralised water reference compound: itraconazole at 6.25 mg/ml test compounds: prepared at 25 mg/ml, subsequently further diluted
Oral treatment (gavage 0.16 ml/100 g once daily) was started about 2 hours before infection and continued once daily for 7 consecutive days. The animals were weighed after 3 days of treatment to adjust for the dose.
Developments of lesions were evaluated following the semi-quantitative lesion scoring system (see Table 6) on days 3, 5, 7, 10, 12, 14, 17 and 20. The results are show in Table 7 (“DPI” means days post infection). Reported values in Table 7 are mean values.

[3] = test system: Cryptococcus neoformans B66663; experiment: Antifungal activity in vitro (resazurin susceptibility screen), Inf. F; type: cell-based; settings: Cryptococcus neoformans, B66663, Cryptococcus neoformans B66663; 37 °C, 24 hours, resa time 4 hours
Summary of the method: (§7)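 RPMI-1640/2% glucose/MOPS pH 7.0; 10^3 cfu per well; top conc 64 μM, 2- or 4-fold dilutions from DMSO. Yeasts 24 h 37° C, dermatophytes ≥1 wk 27° C. Resazurin 0.005% added, fluorescence ex 550/em 590 nm vs untreated growth and medium-only controls.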

Rhizopus oryzae IHEM5223 = experiment: Antifungal activity in vitro (resazurin susceptibility screen), Inf. J; type: cell-based; settings: Rhizopus arrhizus, 37 °C, 24 hours, resa time 6 hours
Summary of the method: as §7

[4] = test system: Sporothrix schenkii B62482; experiment: Antifungal activity in vitro (resazurin susceptibility screen), Inf. A; type: cell-based; settings: Sporothrix, B62482, Sporothrix schenkii B62482; 27 °C, 4 days, resa time 24 hours
Summary of the method: as §7

[5] = test system: Trichophyton mentagrophytes B70554; experiment: Antifungal activity in vitro (resazurin susceptibility screen), Inf. G; type: cell-based; settings: Trichophyton mentagrophytes, B70554, Trichophyton mentagrophytes B70554; 27 °C, 7 days, resa time 24 hours
Summary of the method: as §7

Microsporum canis B68128 = experiment: Antifungal activity in vitro (resazurin susceptibility screen), Inf. B; type: cell-based; settings: Microsporum canis, B68128, Microsporum canis B68128; 27 °C, 9 days, resa time 24 hours
Summary of the method: as §7

[6] = test system: Candida parapsilosis B66126; experiment: Antifungal activity in vitro (resazurin susceptibility screen), Inf. D; type: cell-based; settings: Lodderomyces parapsilosis, B66126, Candida parapsilosis B66126; 37 °C, 24 hours, resa time 4 hours
Summary of the method: as §7

[7] = test system: Scedosporium prolificans IHEM21157; experiment: Antifungal activity in vitro (resazurin susceptibility screen), Inf. I; type: cell-based; settings: Lomentospora prolificans, 37 °C, 48 hours, resa time 17 hours
Summary of the method: as §7

[8] = test system: Scedosporium apiospermum IHEM3817; experiment: Antifungal activity in vitro (resazurin susceptibility screen), Inf. H; type: cell-based; settings: Scedosporium apiospermum, IHEM3817, Scedosporium apiospermum IHEM3817; 37 °C, 48 hours, resa time 17 hours
Summary of the method: as §7

[9] = test system: Aspergillus fumigatus B42928; experiment: Antifungal activity in vitro (resazurin susceptibility screen), Inf. E; type: cell-based; settings: Aspergillus fumigatus, B42928, Aspergillus fumigatus B42928; 27 °C, 48 hours, resa time 17 hours
Summary of the method: as §7

[10] = test system: Rhizomucor miehei IHEM13391; experiment: Antifungal activity in vitro (resazurin susceptibility screen), Inf. K; type: cell-based; settings: Rhizomucor miehei, IHEM13391, Rhizomucor miehei IHEM13391; 37 °C, 48 hours, resa time 17 hours
Summary of the method: as §7

[11] = test system: Trichophyton rubrum B68183; experiment: Antifungal activity in vitro (resazurin susceptibility screen), Inf. C; type: cell-based; settings: Trichophyton rubrum, B68183, Trichophyton rubrum B68183; 27 °C, 7 days, resa time 24 hours
Summary of the method: as §7

[12] = test system: Mucor circinelloides IHEM21105; experiment: Antifungal activity in vitro (resazurin susceptibility screen), Inf. L; type: cell-based; settings: 27 °C, 48 hours, resa time 17 hours
Summary of the method: as §7

SMILES	bioavailability (in vivo; 10 mg/kg) [%]	bioavailability ([1]; po, 10 mg/kg) [%]	IC50 [3] [nM]	IC50 (Rhizopus oryzae IHEM5223) [µM]	IC50 [4] [µM]	IC50 [5] [µM]	IC50 (Microsporum canis B68128) [µM]	IC50 [6] [nM]	IC50 [7] [µM]	IC50 [8] [µM]	IC50 [9] [µM]	IC50 [10] [µM]	IC50 [11] [nM]	IC50 [12] [µM]	further results
CN(C/C=C/C#CC(C)(C)C)Cc1cccc2ccccc12 [Terbinafine, reference compound]	19	14													semi-quantitative lesion score (mean) ([2]; 3 DPI): 0; semi-quantitative lesion score (mean) ([2]; 5 DPI): 0; semi-quantitative lesion score (mean) ([2]; 7 DPI): 0.08; semi-quantitative lesion score (mean) ([2]; 10 DPI): 0.33; semi-quantitative lesion score (mean) ([2]; 12 DPI): 0.80; semi-quantitative lesion score (mean) ([2]; 14 DPI): 0.75; semi-quantitative lesion score (mean) ([2]; 17 DPI): 0.50; semi-quantitative lesion score (mean) ([2]; 20 DPI): 0.42
CCc1ccc(C2=NCc3c(Cl)cccc3-n3cccc32)cc1 [Compound 22 of WO02/34752, reference compound]	11														bioavailability ([1]; po): 2.7%
CCc1ccc(C2=NCc3ccc(Cl)cc3-n3cccc32)cc1 [Compound 23 of WO02/34752, reference compound]															bioavailability ([1]; PO 40 mg/kg, IV 2.5 mg/kg, read-out: Bioavailability in guinea pigs): 7%
CC(F)(F)c1ccc(C2=NCc3ccc(Cl)cc3-n3cccc32)cc1 [Compound 17, 9-chloro-4-[4-(1,1-difluoroethyl)phenyl]-6H-pyrrolo[1,2-a][1,4]benzodiazepine]		70	324	8.32	5.62	1.62	2.63	2450	0.759	> 64.6	0.55	> 64.6	457	> 64.6	melting point: 115.3 °C (dec.)
CC(F)(F)c1ccc(C2=NCc3c(Cl)cc(Cl)cc3-n3cccc32)cc1 [Compound 9, 7,9-dichloro-4-[4-(1,1-difluoroethyl)phenyl]-6H-pyrrolo[1,2-a][1,4]benzodiazepine]			871	> 64.6	11	12.9	3.98	> 64600	6.03	9.55	7.94	> 64.6	1000	> 64.6	bioavailability (in vivo): 100%; Bioavailability in guinea pigs (result in words) [1]: Bioavailability in guinea pigs: not soluble
